Assays:
Assay type in all cases: cell-based
[1] = test system: pre-purified cardiac clusters of murine αPIG-AT25 iPSCs; test: Cell yield, flow cytometry and morphology of pre-purified miPSC cardiac clusters
Experimental: The differentiation of transgenic mPSCs was initiated in mass cultures as briefly described below. One million cells were transferred per non-adhering 10 cm dish with 14 ml differentiation medium composed of Iscove's Modified Dulbecco's Medium (IMDM) with GlutaMAX (Life Technologies) supplemented with 20% FBS, 1×NEAA and 100 μM β-ME. Embryoid bodies (EBs) from day 2 of differentiation were transferred in a 250 ml spinner flask (CELLSPIN 250, Integra Biosciences, Fernwald, Germany) with a density of 3×10^4 EBs per 200 ml of differentiation medium. On the first 2 days of differentiation medium was supplemented with 50 μg/ml L-ascorbic acid phosphate (AA, Wako pure chemicals industry, Japan) in order to promote the development of cardiac cells. For the selection of GFP-expressing CMs, 50 ml of the medium was exchanged with fresh differentiation medium and 8 μg/ml puromycin (Life Technologies) were supplemented on day 9 of differentiation. Two days later, the cardiac clusters were transferred on non-adhering 10 cm dishes with fresh differentiation medium containing 8 μg/ml puromycin. In the further course of differentiation medium was exchanged every 2-3 days. If not otherwise specified, the purification of GFP-positive CMs with puromycin was continued until day 16 of differentiation. For single cell analyses and transfer of PSC-derived CMs on cell culture plates, cardiac clusters were dissociated with 0.25% trypsin-EDTA (Life Technologies) supplemented with 50 U/ml DNase I (AppliChem, Darmstadt, Germany) for 20-30 min at 37° C. The mPSC-derived CMs were filtered through a polyamide membrane with […] pore size (Sefar, Heiden, Switzerland). Cell numbers were determined with a Neubauer hemocytometer and cells were stored on ice until further use.
Aiming at complete elimination of remaining PSCs in PSC-derived cell aggregates, murine cardiac clusters were pre-purified with 2-4 μg/ml puromycin from day 9 until day 14 of differentiation in order to prevent complete removal of PSCs and then treated with SM6 for 2 days to assess its potential for removal of contaminating PSCs in the absence of puromycin. After treatment, cardiac clusters were dissociated with 0.25% trypsin-EDTA supplemented with 50 U/ml of DNase I and the level of PSC contamination was determined using colony formation assay, flow cytometry for SSEA-1 and RT-PCR for Oct4. […] Developing PSC colonies on MEF plates were quantified and visualized with 1% crystal violet (Fluka Analytical, St. Louis, USA) diluted in methanol (Applichem). […]
Cells were measured with an Attune acoustic focusing cytometer (Life Technologies) and data was analyzed with the Attune Cytometric software v1.2.5 (Life Technologies). Marker expression was analyzed in a gated population of 10^4 viable cells. […]

[2] = test system: colony forming PSCs in pre-purified cardiac clusters of murine ESC line αPIG44-D3; test: Colony formation assay after treatment of pre-purified mESC cardiac clusters; conditions: 48 h
Experimental: (§1) Aiming at complete elimination of remaining PSCs in PSC-derived cell aggregates, murine cardiac clusters were pre-purified with 2-4 μg/ml puromycin from day 9 until day 14 of differentiation in order to prevent complete removal of PSCs and then treated with SM6 for 2 days to assess its potential for removal of contaminating PSCs in the absence of puromycin. After treatment, cardiac clusters were dissociated with 0.25% trypsin-EDTA supplemented with 50 U/ml of DNase I and the level of PSC contamination was determined using colony formation assay, flow cytometry for SSEA-1 and RT-PCR for Oct4. In colony formation assays 2×10^5 cells were plated on a 6 cm cell culture dish containing MEF and cultured in maintenance medium supplemented with 1000 U/ml of mLIF for 7-10 days. Developing PSC colonies on MEF plates were quantified and visualized with 1% crystal violet (Fluka Analytical, St. Louis, USA) diluted in methanol (Applichem).
To confirm the PSC-eliminating effect of the compound SM6, pre-purified cardiac clusters derived from transgenic murine ESC line αPIG44-D3 were also treated with SM6. The cells were differentiated in spinner flasks and incubated for 48 h with compound SM6 as described above with the exception that pre-purification was performed with 4 μg/ml of puromycin between day 9 and day 14, as schematically illustrated in FIG. 7a).

[3] = test system: contaminating colony-forming PSCs in unpurified EBs of murine iPSCs; test: Colony formation assay after treatment of unpurified EBs; conditions: day 9 to day 16: SM6 1 μM then 5 μM from day 14; puromycin 8 μg/ml
Experimental: as §1
Purifying the whole CM population including GFP-negative CMs in murine PSC-derived EBs was tested with SM6 as well. […] The percentage of CM population in EBs was monitored by flow cytometry and the amount of contaminating PSCs was quantified by colony formation assay as described above. Fluorescence images of PSC-derived cell aggregates were captured with a Zeiss Axiovert 200M fluorescence microscope and analyzed with Zeiss Axiovision 4.5 software. […]

[4] = test system: unpurified EBs of murine iPSCs; test: Flow cytometry (cTnT) and cell yield of unpurified EBs; conditions: for cTnT+ CM population / fold increase of CM purity (cTnT+) compared to DMSO-treated control / reduction of total cell yield relative to DMSO control: day 9 to day 16: SM6 1 μM then 5 μM from day 14, puromycin 8 μg/ml
Experimental: Purifying the whole CM population including GFP-negative CMs in murine PSC-derived EBs was tested with SM6 as well. EBs from day 9 of differentiation were treated starting with 1 μM of SM6 for 5 days followed by treatment with 5 μM from day 14 until day 16 of differentiation. The percentage of CM population in EBs was monitored by flow cytometry and the amount of contaminating PSCs was quantified by colony formation assay as described above. Fluorescence images of PSC-derived cell aggregates were captured with a Zeiss Axiovert 200M fluorescence microscope and analyzed with Zeiss Axiovision 4.5 software.
Determination of CM purity in the cell population was performed by flow cytometric analysis. PSC-derived EBs or cardiac clusters were dissociated with 0.25% trypsin-EDTA. Dead cells were stained with LIVE/DEAD fixable dead cell stain kit (Life Technologies) prior to cell fixation using in 4% PFA for 15 min. Immunological staining of cardiac Troponin T (cTnT) was performed in order to detect the total CM population including GFP-negative CMs. […] An anti-cTnT mouse antibody (sc-20025, Santa Cruz, Dallas, USA) and the corresponding isotype control (sc-3878, Santa Cruz) were diluted 1:50 in 0.8% BSA in PBS with 1% saponin and incubated for 30 min at 4° C., respectively. After washing the cells with PBS, cells were incubated with an AF555-conjugated secondary antibody (1:100, A21422, Life Technologies) in 0.8% BSA and 1% saponin in PBS for 1 h at 4° C.
Cells were measured with an Attune acoustic focusing cytometer (Life Technologies) and data was analyzed with the Attune Cytometric software v1.2.5 (Life Technologies). Marker expression was analyzed in a gated population of 10^4 viable cells.
In order to determine whether it is possible to entirely replace puromycin pre-treatment with SM6 and thus circumvent the need for genetic manipulation of PSCs to enable CM selection, the SM6 was supplemented to the differentiation medium of miPSCs from day 9 onwards starting with a concentration of 1 μM which was increased to 5 μM from day 14 until day 16 of differentiation, as is schematically illustrated in FIG. 8a). Control cells received 0.025% DMSO or 8 μg/ml puromycin during this time period (day 9 to day 16 of differentiation).

Structure (SMILES)	reduction of total cell yield compared to DMSO-treated control ([1]; puromycin 8 μg/ml) [%]	reduction of the number of ESC-derived colonies compared to DMSO control ([2]; puromycin 8 μg/ml) [%]	reduction of contaminating colony-forming PSCs [3] [%]	cTnT+ CM population [4] [%]	fold increase of CM purity (cTnT+) compared to DMSO-treated control [4] [fold]	reduction of total cell yield relative to DMSO control [4] [%]	morphology and contractility of cardiac clusters ([1]; 1 μM, 5 μM and 10 μM, 48 hours)	fraction of GFP−/cTnT− non-CMs ([1]; 10 μM, flow cytometry) [%]	fraction of GFP+/cTnT+ CMs of the viable cell population ([1]; increasing concentrations of SM6, flow cytometry)	reduction of the number of ESC-derived colonies compared to DMSO control ([2]; 1 μM) [%]	reduction of the number of ESC-derived colonies compared to DMSO control ([2]; 5 μM) [%]	reduction of the number of ESC-derived colonies compared to DMSO control ([2]; 10 μM) [%]	fold higher yield of cTnT+ CMs compared to the treatment with puromycin ([4]; SM6 1 μM then 5 μM from day 14, p<0.01) [fold]	CM yield higher compared to the DMSO-treated control group ([4]; in three out of five experiments)
COc1ccc(C[C@H](N)C(=O)N[C@H]2[C@@H](O)[C@H](n3cnc4c(N(C)C)ncnc43)O[C@@H]2CO)cc1 [puromycin, reference compound]	20.55±14.43	47.83±24.89	97.55±4.02	93.26±3.05	3.08±1.42	92.17±3.53								
Oc1ccccc1CN[C@@H]1CCCC[C@H]1NCc1ccccc1O [SM6, (1R,2R)-N,N′-di(2-hydroxybenzyl)-1,2-diaminocyclohexane]			98.88±1.04	77.57±12.26	2.56±1.25	56.6±10.44	not compromised	7	up to 74%	20.03±26.95	93.75±3.45	96.23±0.75	2.72±1.61	31-86%
